Results: patent US20250041272A1, “COMPOSITIONS AND METHODS FOR TREATING CANCER VIA PTP1B INHIBITION” (priority 2021, published 2025)

How the values were obtained:
[1] = system: Stat1 phosphorylation and MyD88 in macrophages; test: Transwell co-culture of M1 induced macrophages with tumor cells plus inhibitors (Western blot, qRT-PCR); assay type: cell-based, mouse; conditions: 24 hours
Description: (§1) Peritoneal macrophage isolation and culture. Peritoneal macrophages were done as described previously(65) from 8-week-old C57BL/6J mice (randomized, both male and female). PBS (Gibco) was injected in the mural peritoneal cavity to release the macrophages. After recovering, cells were centrifuged at 1200 rpm for 5 minutes, resuspended in DMEM high glucose, 10% FBS, 1% penicillin-streptomycin (Gibco) and plated. 2 hours after the last step, cells were washed with PBS and maintained in DMEM/F12 supplemented with 10% FBS, 1% penicillin-streptomycin and 20 ng/ml of M-CSF (Prospec) for 2 days. Macrophages were treated for 24 hours with 50 ng/ml LPS (Sigma Millipore), 100 ng/ml IFNγ (BioLegend), 300 ng/ml PAM3CSK4 (InvivoGen), 107 cells/ml heat killed Listeria Monocytogenes (HKLM) (InvivoGen), 100 ng/ml Flagellin Salmonella typhimurium standard (InvivoGen), 10 ng/ml FSL1 (InvivoGen), 2.5 ug/ml ssRNA40 (InvivoGen), 2.5 ug/ml CL 075 (Tocris), 5 μM ODN1826, 50 μM Fludarabine (SelleckChem), 50 nM Momelotinib (SelleckChem), 5 μM BVT948 (Sigma Millipore), 200 μM PTP1b inhibitor III (Santa Cruz Biotechnology Inc.), 5 μM NSC87877 (Santa Cruz Biotechnology Inc.), 50 μM PTP1b inhibitor (Cayman), 1 mM PTP Inhibitor IV (Santa Cruz Biotechnology Inc.), 1 μM TSC401, 300 nM UNC2371 (SelleckChem), 300 nM BMS777607 (SelleckChem), 300 nM LDC1267 (SelleckChem) 1.5 μg/ml recombinant Pros1 (R&D systems), 200 ng/ml recombinant Gas6 (R&D systems) or 10-500 μM Cisplatin (Tocris). All components were added as described in the text. Cell culture. B16F10 (CRL-6475, ATCC), Lewis lung carcinoma (LLC) (CRL-1642, ATCC), KPC2713 (Yuliya Pylayeva-Gupta laboratory, UNC) and MDA-MB-231 (HTB-26, ATCC) were cultured in DMEM high glucose supplemented with 10% FBS, 1% penicillin-streptomycin (Gibco). […]

[2] = system: MyD88 expression in peritoneal macrophages; test: Individual TLR agonism of macrophages, MyD88 by qRT-PCR; assay type: cell-based, mouse; conditions: 24 hours
Description: (§2) Peritoneal macrophage isolation and culture. Peritoneal macrophages were done as described previously(65) from 8-week-old C57BL/6J mice (randomized, both male and female). PBS (Gibco) was injected in the mural peritoneal cavity to release the macrophages. After recovering, cells were centrifuged at 1200 rpm for 5 minutes, resuspended in DMEM high glucose, 10% FBS, 1% penicillin-streptomycin (Gibco) and plated. 2 hours after the last step, cells were washed with PBS and maintained in DMEM/F12 supplemented with 10% FBS, 1% penicillin-streptomycin and 20 ng/ml of M-CSF (Prospec) for 2 days. […]

[3] = system: macrophage MyD88 expression; test: Exogenous TAM ligand addition to pro-inflammatory macrophages, MyD88 qRT-PCR; assay type: cell-based, mouse; conditions: Pros1 1.5 ug/ml, Gas6 200 ng/ml, compared with transwell co-cultured B16F10 cells
Description: as §1

[4] = system: Stat1 and MyD88 expression in pro-inflammatory macrophages; test: Stat1 or Jak1/2 inhibitor treatment of pro-inflammatory macrophages, qRT-PCR; assay type: cell-based, mouse; conditions: Fludarabine 50 μM, Momelotinib 50 nM
Description: as §2

LLC tumors = test: Subcutaneous LLC tumor model; assay type: in vivo, mouse; conditions: BVT948 10 mg/kg or Cisplatin 5 mg/kg intraperitoneal, treatment from 50 mm^3
Description: (§3) Tumor implantation, treatment and harvest. For animal studies, 1*10^5 B16F10 luciferase-tagged melanoma cells, 1*10^6 GEMM6 melanoma cells or 2*10^6 LCC cells were implanted subcutaneously into C57BL/6J mice (randomized, both males and females, 000664 The Jackson laboratory). When indicated, mice received intraperitoneal injections 7 days after implantation with 100 μl of 5 mg/kg cisplatin (Tocris), 100 μl of 10 mg/kg BVT948 (Tocris) or 100 μl of 30 mg/kg of vemurafenib. 5 mice were used per experimental group and tumors were harvested when they reached 1.5 cm in any direction.
(§4) Immunohistochemistry analysis. Immunohistochemistry assay was carried out in formalin-fixed, paraffin-embedded 4 μm sections using primary antibodies against F4:80 (AbD Serotec), CD11b (Abcam), CD4 (eBioscience) or CD8a (eBioscience) on a Discovery Ultra Automated IHC staining system (Ventana). Sections were then imaged using a ScanScope XT microscope (Aperio) and quantified using Aperio software.

B16F10 tumors = test: Subcutaneous B16F10 melanoma tumor model; assay type: in vivo, mouse; conditions: BVT948 10 mg/kg or Cisplatin 5 mg/kg intraperitoneal, treatment from 50 mm^3
Description: as §3, §4

[5] = system: macrophage M1 associated gene expression; test: Cisplatin treated transwell co-culture of macrophages and B16F10 cells, qRT-PCR; assay type: cell-based, mouse
Description: Peritoneal macrophage isolation and culture. Peritoneal macrophages were done as described previously(65) from 8-week-old C57BL/6J mice (randomized, both male and female). PBS (Gibco) was injected in the mural peritoneal cavity to release the macrophages. After recovering, cells were centrifuged at 1200 rpm for 5 minutes, resuspended in DMEM high glucose, 10% FBS, 1% penicillin-streptomycin (Gibco) and plated. 2 hours after the last step, cells were washed with PBS and maintained in DMEM/F12 supplemented with 10% FBS, 1% penicillin-streptomycin and 20 ng/ml of M-CSF (Prospec) for 2 days. Macrophages were treated for 24 hours with 50 ng/ml LPS (Sigma Millipore), 100 ng/ml IFNγ (BioLegend), 300 ng/ml PAM3CSK4 (InvivoGen), 107 cells/ml heat killed Listeria Monocytogenes (HKLM) (InvivoGen), 100 ng/ml Flagellin Salmonella typhimurium standard (InvivoGen), 10 ng/ml FSL1 (InvivoGen), 2.5 ug/ml ssRNA40 (InvivoGen), 2.5 ug/ml CL 075 (Tocris), 5 μM ODN1826, 50 μM Fludarabine (SelleckChem), 50 nM Momelotinib (SelleckChem), 5 μM BVT948 (Sigma Millipore), 200 μM PTP1b inhibitor III (Santa Cruz Biotechnology Inc.), 5 μM NSC87877 (Santa Cruz Biotechnology Inc.), 50 μM PTP1b inhibitor (Cayman), 1 mM PTP Inhibitor IV (Santa Cruz Biotechnology Inc.), 1 μM TSC401, 300 nM UNC2371 (SelleckChem), 300 nM BMS777607 (SelleckChem), 300 nM LDC1267 (SelleckChem) 1.5 μg/ml recombinant Pros1 (R&D systems), 200 ng/ml recombinant Gas6 (R&D systems) or 10-500 μM Cisplatin (Tocris). All components were added as described in the text. Cell culture. B16F10 (CRL-6475, ATCC), Lewis lung carcinoma (LLC) (CRL-1642, ATCC), KPC2713 (Yuliya Pylayeva-Gupta laboratory, UNC) and MDA-MB-231 (HTB-26, ATCC) were cultured in DMEM high glucose supplemented with 10% FBS, 1% penicillin-streptomycin (Gibco). GEMM6 (Dr. Alisha Holtzhausen, UNC), KPPC4662 (Dr. Yuliya Pylayeva-Gupta laboratory, UNC), KPPC4548 (Yuliya Pylayeva-Gupta laboratory, UNC) and E0771 (CRL-3461, ATCC) were maintained in RPMI 1640 supplemented with […], 1% penicillin/streptomycin (Gibco) while PyMT cells were cultured in Ham's F-12K with 10% FBS, 1% penicillin-streptomycin (Gibco). Transwell assays were performed in 0.4 μm polyester membrane insert culture plates (Corning). 500,000 cells of each line were plated per well in DMEM/F12 supplemented with 10% FBS, 1% penicillin-streptomycin and 20 ng/ml of M-CSF for culture with mouse macrophages. SC cells (CRL-9855, ATCC) were cultured in IMDM with 10% FBS and 1% penicillin-streptomycin (Gibco). In transwell experiments with the SC cell line, cancer cells were also resuspended in IMDM media.
qRT-PCR. RNA was isolated using the RNeasy Plus Mini Kit (Quiagen) and cDNA was prepared using the Reverse Transcription System (Promega) with one-hour reverse transcription process. qRT-PCR was done using the PowerUp™ SYBR™ Green Master Mix (Applied Biosystems) on a QuantStudio Pro Real-time PCR system (Applied Biosystems) with a 95° C. pretreatment of 10 min, 50 cycles of 95° C., 10 sec and 60° C., 1 min and melt curve at the end. Analysis was performed with the 2^−ΔΔCT method(136).

## CCc1oc2cc(S(=O)(=O)Nc3ccc(S(=O)(=O)Nc4nccs4)cc3)ccc2c1C(=O)c1cc(Br)c(O)c(Br)c1 [PTP inhibitor]
[1]
  Stat1 phosphorylation at Tyrosine 701 and Serine 727: increased

## Pam3CSK4
[2]
  MyD88 expression upon individual TLR agonism: upregulation of MyD88

## Pros1: recombinant murine Pros1, TAM family ligand (R&D systems)
[3]
  macrophage MyD88 expression after exogenous ligand addition: reduced comparably to that of tumor cell secretions
[3]; listed as Recombinant murine Pros1
  macrophage MyD88 expression after exogenous ligand addition: suppresses macrophage MyD88 expression similarly to transwell co-culture with B16F10 cells

## N#CCNC(=O)c1ccc(-c2ccnc(Nc3ccc(N4CCOCC4)cc3)n2)cc1 [Momelotinib]
[4]
  Stat1 expression: did not significantly alter
[4]; compared with B16F10 transwell co-culture
  MyD88 expression: did not significantly alter

## O=S(=O)(O)c1ccc2cc(N=Nc3cc(S(=O)(=O)O)c4cccnc4c3O)ccc2c1 [NSC87877]
[1]
  Stat1 phosphorylation at Tyrosine 701 and Serine 727: increased

## FSL-1
[2]
  MyD88 expression upon individual TLR agonism: upregulation of MyD88

## N.N.[Cl][Pt][Cl] [Cisplatin]
LLC tumors
  LLC tumor growth reduction, monotherapy: 30%
B16F10 tumors
  B16F10 tumor growth, monotherapy vs vehicle: did not significantly reduce
[5]; 25 μM Cisplatin, co-cultured with B16F10 tumor cells, no PTP1b inhibitor
  activation of Mer deficient macrophages: macrophages could be activated even in the presence of tumor cells
[5]; even at 500 μM Cisplatin, wildtype macrophages with B16F10 cells
  M1 associated gene expression, Cisplatin alone: did not lead to substantially increased M1 associated gene expression
[5]; increasing Cisplatin, with or without BVT948
  M1 gene expression in MyD88 knockout macrophages: Neither increasing concentrations of Cisplatin, nor PTP1 b inhibition, were able to restore M1 gene expression

B1: Gas6: recombinant Gas6, TAM family ligand (R&D systems) (protein, UniProt Q14393 31-678, looked up)
Growth arrest-specific …: ALLPAREATQFLRPRQRRAFQVFEEAKQGHLERECVEELCSREEAREVFENDPETDYFYPRYLDCINKYGSPYTKNSGFATCVQNLPDQCTPNPCDRKGTQACQDLMGNFFCLCKAGWGGRLCDKDVNECSQENGGCLQICHNKPGSFHCSCHSGFELSSDGRTCQDIDECADSEACGEARCKNLPGSYSCLCDEGFAYSSQEKACRDVDECLQGRCEQVCVNSPGSYTCHCDGRGGLKLSQDMDTCEDILPCVPFSVAKSVKSLYLGRMFSGTPVIRLRFKRLQPTRLVAEFDFRTFDPEGILLFAGGHQDSTWIVLALRAGRLELQLRYNGVGRVTSSGPVINHGMWQTISVEELARNLVIKVNRDAVMKIAVAGDLFQPERGLYHLNLTVGGIPFHEKDLVQPINPRLDGCMRSWNWLNGEDTTIQETVKVNTRMQCFSVTERGSFYPGSGFAFYSLDYMRTPLDVGTESTWEVEVVAHIRPAADTGVLFALWAPDLRAVPLSVALVDYHSTKKLKKQLVVLAVEHTALALMEIKVCDGQEHVVTVSLRDGEATLEVDGTRGQSEVSAAQLQERLAVLERHLRSPVLTFAGGLPDVPVTSAPVTAFYRGCMTLEVNRRLLDLDEAAYKHSDITAHSCPPVEPAAA
[3]
  macrophage MyD88 expression after exogenous ligand addition: limited effect
